Laboratory results from USRE35593E (priority 1989, dated 1997).
Structures can show the parent of a compound that is named as a salt. Where two headings read alike, the source gives them in different places.

Experiments:
muscarinic receptors [1] = experiment: Radio ligand binding: displacement of muscarinic agonist 3H-OXO-M (3H-Oxotremorine-M), rat cerebral cortex membranes; design: species or system Hooded Lister rats; details: 2 nM 3H-OXO-M, 2 mM magnesium chloride, 37° C., 30 min, pH 7.7, non-specific: 10 μM Oxotremorine
muscarinic receptors [2] = assay type: binding, Hooded Lister rats; details: 0.27 nM 3H-QNB; rat cerebral cortex; 37° C., 30 min; pH 7.7; non-specific: 1 μM Atropine sulphate

| Compound | IC50 (muscarinic receptors [1]) [nM] | IC50 (muscarinic receptors [2]) [µM] |
| --- | --- | --- |
| CON=C(OC)C1CN2CCC1CC2 (racemic) [Example E2, (±) 1-Azabicyclo2.2.2]oct-3-yl-N-methoxycarboximidic acid methyl ester oxidate salt] | 1000 | 8 |
| CON=C(Cl)C12CCN(CC1)C2 [Example E11, 1-Azabicyclo[2.2.1]hept-4-yl-N-methoxycarboximidoyl chloride oxalate salt] | 38 | 9 |
| CON=C(Br)[C@H]1CN2CC[C@H]1C2 (relative stereo) [Example E18, (±) exo- and endo-1-Azabicyclo[2.2.1]hept-3-yl-N-methoxycarboximidoyl bromide oxalate salts] | 46 | 11 |
| CON=C(C#N)C12CCN(CC1)C2 [Example E12, α-(Methoxyimino)-α-(1-azabicyclo[2.2.1]hept-4-syl)acetonitrilehydrochloride salt] | 21 | 2 |
| CON=C(Br)C12CCCN(CC1)C2 (racemic) [Example E7, (±) 1-Azabicyclo[3.2. ]oct-5-yl-N-methoxycarboximidonyl bromide oxalate salt] | 190 | 2.85 |
| C#CCON=C(Cl)[C@H]1CN2CC[C@H]1C2 (relative stereo) [Example E24, (±) exo- and endo-1-Azabicyclo[2.2.1]hept-3-yl-N-prop-2-ynyloxycarboximidoyl chloride oxalate salts] | 112 | 2.1 |
| CON=C(C#N)[C@@H]1CN2CC[C@H]1C2 (relative stereo) [Example E17, (±) endo-α-(Methoxyimino)-α-(1-azabicyclo[2.2.1]hept-3-yl)acetonitrile oxalate salt] | 16 | 3.6 |
| CON=C(Cl)C12CCCN(CC1)C2 (racemic) [Example E5, (±) 1-Azabicyclo[3.2.1]oct-5-yl-N-methoxycarboximidoyl chloride oxalate salt] | 72 | 3.82 |
| CON=C(CC#N)[C@@H]1CN2CC[C@H]1C2 (relative stereo) [Example E28, (±) exo- and endo-3-Oxo-3-(1-azabicyclo[2.2.1]hept-3-yl)propionitrile-O-methyl oxime oxalate salts] | 750 | 16.5 |
| CON=C(Cl)C1CN2CCC1CC2 (racemic) [Example E1, (±) 1-Azabicyclo[2.2.2]oct-3-yl-N-methoxycarboximidoyl chloride oxalate salt] | 93 | 0.897 |
| CON=C(F)C12CCN(CC1)C2 [Example E14, 1-Azabicyclo[2.2.1]hept-4-yl-N-methoxycarboximidoyl fluoride oxalate salt] | 48 | 15.5 |
| C#CC(=NOC)C12CCCN(CC1)C2 (racemic) [Example E4, (±) 1-Azabicyclo[3.2.1]oct-5-yl ethynyl ketone O-methyloxime oxalate salt] | 162 | 1.46 |
| CON=C(C#N)[C@H]1CN2CC[C@H]1C2 (relative stereo) [Example E9, (±) exo-α-(Methoxyimino)-α-(1-azabicyclo[2.2.1]hept-3-yl)acetonitrile hydrochloride salt] | 25 | 2.1 |
| CON=C(Cl)[C@H]1CN2CC[C@H]1C2 (relative stereo) [Example E8, (±) exo-1-Azabicyclo[2.2.1]hept-3-yl-N-methoxycarboximidoyl chloride oxalate salt] | 64 | 3.33 |
| CON=C(CC#N)[C@H]1CN2CC[C@H]1C2 (relative stereo) [Example E27, (±) exo- and endo-3-Oxo-3-(1-azabicyclo[2.2.1]hept-3-yl)propionitrile-O-methyl oxime oxalate salts] | 71 | 1.1 |
| CON=C(Br)C12CCN(CC1)C2 [Example E13, 1-Azabicyclo[2.2.1]hept-4-yl-N-methoxycarboximidoyl bromide oxalate salt] | 170 | 10 |
| CON=C(C1CC1)C1CN2CCC1CC2 (racemic) [Example E15, (±) 1-Azabicyclo[2.2.2]oct-3-yl cyclopropyl ketone trans-O-methyloxime hydrochloride salt] | 386 | 22.2 |
| CON=C(Br)[C@@H]1CN2CC[C@H]1C2 (relative stereo) [Example E19, (±) exo- and endo-1-Azabicyclo[2.2.1]hept-3-yl-N-methoxycarboximidoyl bromide oxalate salts] | 127 | 3.6 |
| CON=C(Cl)[C@@H]1CN2CC[C@H]1C2 (relative stereo) [Example E16, (±) endo-1-Azabicyclo[2.2.1]hept-3-yl -N-methoxycarboximidoyl chloride oxalate salt] | 99 | 7 |
| CON=C(F)C1CN2CCC1CC2 (racemic) [Example E10, (±) 1-Azabicyclo[2.2.2]oct-3-yl-N-methoxycarboximidoyl fluoride oxalate salt] | 34 | 2.11 |
| CON=C(C#N)C12CCCN(CC1)C2 (racemic) [Example E6, (±) α-(Methoxyimino)-α-(1-azabicyclo[3.2.1]oct-5-yl) acetonitrile hydrochloride salt] | 114 | 0.251 |
| CCON=C(C#N)[C@H]1CN2CC[C@H]1C2 (relative stereo) [Example E22, (±) exo-α-(Ethoxyimino)-α-(1-azabicyclo[2.2. 1]hept-3-yl)acetonitrile oxalate salt] | 233 | 10 |
| CCON=C(Cl)[C@H]1CN2CC[C@H]1C2 (relative stereo) [Example E21, (±) exo-1-Azabicyclo[2.2.1]hept-3-yl-N-ethoxy carboximidoyl chloride oxalate salt] | 570 | 15.5 |
| CON=C(F)[C@H]1CN2CC[C@H]1C2 (relative stereo) [Example E20, (±) exo-1-Azabicyclo[2.2.1]hept-3-yl-N-methoxy carboximidoyl fluoride oxalate salt] | 11 | 3 |
